Data from patent US9670157B2, “Benzylamine derivatives” (KALVISTA PHARMACEUTICALS LIMITED, priority 2013, dated 2017).
Like-named read-outs stand apart in the source and are kept apart here.

Tests used:
Human KLK1 = Human KLK1 (Homo sapiens (Human), UniProt P06870); experiment: Determination of the IC50 for KLK1; assay type: biochemical; conditions: 37° C., fluorogenic substrate H-DVal-Leu-Arg-AFC
Method: KLK1 inhibitory activity in vitro was determined using standard published methods (see e.g. Johansen et al., Int. J. Tiss. Reac. 1986, 8, 185; Shori et al., Biochem. Pharmacol., 1992, 43, 1209; Stürzebecher et al., Biol. Chem. Hoppe-Seyler, 1992, 373, 1025). Human KLK1 (Callbiochem) was incubated at 37° C. with the fluorogenic substrate H-DVal-Leu-Arg-AFC and various concentrations of the test compound. Residual enzyme activity (initial rate of reaction) was determined by measuring the change in optical absorbance at 410 nm and the IC50 value for the test compound was determined.

Human plasma kallikrein = Human plasma kallikrein (Homo sapiens (Human), UniProt P03952); experiment: Determination of the IC50 for Plasma Kallikrein; assay type: biochemical; conditions: read-out: IC50 (human PKal)
Method: Human plasma kallikrein (Protogen) was incubated at 37° C. with the fluorogenic substrate H-DPro-Phe-Arg-AFC and various concentrations of the test compound. Residual enzyme activity (initial rate of reaction) was determined by measuring the change in optical absorbance at 410 nm and the IC50 value for the test compound was determined.

[1] = 37° C., fluorogenic substrate H-DPro-Phe-Arg-AFC

Human KLK1, sequence (P06870 25-262): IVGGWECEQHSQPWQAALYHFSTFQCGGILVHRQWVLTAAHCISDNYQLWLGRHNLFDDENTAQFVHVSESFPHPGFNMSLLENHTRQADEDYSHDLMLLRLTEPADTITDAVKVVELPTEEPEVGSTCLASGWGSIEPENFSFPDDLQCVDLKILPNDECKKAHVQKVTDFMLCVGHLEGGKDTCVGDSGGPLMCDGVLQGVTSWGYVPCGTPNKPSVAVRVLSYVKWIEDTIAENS
Human plasma kallikrein, sequence (P03952 391-638): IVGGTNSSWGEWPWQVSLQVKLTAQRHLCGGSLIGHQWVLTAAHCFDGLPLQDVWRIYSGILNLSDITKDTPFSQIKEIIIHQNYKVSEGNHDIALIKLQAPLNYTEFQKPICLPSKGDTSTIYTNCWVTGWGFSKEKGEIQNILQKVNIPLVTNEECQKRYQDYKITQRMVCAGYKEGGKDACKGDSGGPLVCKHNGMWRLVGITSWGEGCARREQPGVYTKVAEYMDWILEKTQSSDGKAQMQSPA
Human plasma kallikrein, sequence (P03952 20-390 partner): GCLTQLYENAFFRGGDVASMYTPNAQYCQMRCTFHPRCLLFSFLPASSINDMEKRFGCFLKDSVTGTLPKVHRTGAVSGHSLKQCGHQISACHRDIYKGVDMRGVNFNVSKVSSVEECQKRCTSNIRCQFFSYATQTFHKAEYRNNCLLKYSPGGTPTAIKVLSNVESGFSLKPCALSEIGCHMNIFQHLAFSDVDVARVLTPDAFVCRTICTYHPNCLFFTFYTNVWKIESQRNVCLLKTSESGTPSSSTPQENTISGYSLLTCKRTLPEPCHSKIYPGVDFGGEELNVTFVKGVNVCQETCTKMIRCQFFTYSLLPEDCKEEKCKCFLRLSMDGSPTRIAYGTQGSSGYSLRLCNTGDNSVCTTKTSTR

Cc1cc(C(=O)NCc2ccc(CN)cc2)c(C)n1Cc1csc(-c2cccnc2)c1 [Example 8, 2,5-Dimethyl-1-(5-pyridin-3-yl-thiophen-3-ylmethyl)-1H-pyrrole-3-carboxylic acid 4-aminomethyl-benzylamide]
IC50 (Human KLK1): 6.36 µM | IC50 (Human plasma kallikrein; [1]): 348 nM

Cc1cc(C(=O)NCc2ccc(CN)cc2)c(C)n1Cc1csc(-c2cnccn2)n1 [Example 40, 2,5-Dimethyl-1-(2-pyrazin-2-yl-thiazol-4-ylmethyl)-1H-pyrrole-3-carboxylic acid 4-aminomethyl-benzylamide]
IC50 (Human KLK1): > 10 µM | IC50 (Human plasma kallikrein; [1]): 1660 nM

CCCn1c(C(=O)NCc2ccc(CN)cc2)cc(C)c1Cc1ccccc1 [Example 78, 5-Benzyl-4-methyl-1-propyl-1H-pyrrole-2-carboxylic acid 4-aminomethyl-benzylamide]
IC50 (Human KLK1): > 10 µM | IC50 (Human plasma kallikrein; [1]): 4130 nM

Cc1cnn(Cc2ccc(Cn3cc(C(=O)NCc4c(C)cc(CN)cc4C)cn3)cc2)c1 [Example 111, 1-[4-(4-Methyl-pyrazol-1-ylmethyl)-benzyl]-1H-pyrazole-4-carboxylic acid 4-aminomethyl-2,6-dimethyl-benzylamide]
IC50 (Human KLK1): > 10 µM | IC50 (Human plasma kallikrein; [1]): 1 nM

CCn1c(C(=O)NCc2ccc(CN)cc2C)cc(C)c1Cc1ccc(Cn2ccccc2=O)cc1 [Example 92, 1-Ethyl-4-methyl-5-[4-(2-oxo-2H-pyridin-1-ylmethyl)-benzyl]-1H-pyrrole-2-carboxylic acid 4-aminomethyl-2-methyl-benzylamide]
IC50 (Human KLK1): 10 µM | IC50 (Human plasma kallikrein; [1]): 40 nM

Cc1cc(C(=O)NCc2ccc(CN)cc2)c(C)n1Cc1cc(-c2cccnc2)cs1 [Example 13, 2,5-Dimethyl-1-(4-pyridin-3-yl-thiophen-2-ylmethyl)-1H-pyrrole-3-carboxylic acid 4-aminomethyl-benzylamide]
IC50 (Human KLK1): > 10 µM | IC50 (Human plasma kallikrein; [1]): 2380 nM

Cc1cc(C(=O)NCc2ccc(CN)cc2)[nH]c1Cc1ccccc1 [Example 76, 5-Benzyl-4-methyl-1H-pyrrole-2-carboxylic acid 4-aminomethyl-benzylamide]
IC50 (Human KLK1): > 10 µM | IC50 (Human plasma kallikrein; [1]): 8770 nM

Cc1cnn(Cc2ccc(Cn3cnc(C(=O)NCc4ccc(CN)cc4C)c3)cc2)c1 [Example 107, 1-[4-(4-Methyl-pyrazol-1-ylmethyl)-benzyl]-1H-imidazole-4-carboxylic acid 4-aminomethyl-2-methyl-benzylamide]
IC50 (Human KLK1): > 10 µM | IC50 (Human plasma kallikrein; [1]): 3 nM

Cc1cc(CN)ccc1CNC(=O)c1cc(C)n(Cc2ccc(Cn3ccccc3=O)cc2)c1C [Example 91, 2,5-Dimethyl-1-[4-(2-oxo-2H-pyridin-1-ylmethyl)-benzyl]-1H-pyrrole-3-carboxylic acid 4-aminomethyl-2-methyl-benzylamide]
IC50 (Human KLK1): > 10 µM | IC50 (Human plasma kallikrein; [1]): 29 nM

NCc1ccc(CNC(=O)c2cnn(Cc3csc(-c4ccccc4)n3)c2C(F)(F)F)cc1 [Example 82, 1-(2-Phenyl-thiazol-4-ylmethyl)-5-trifluoromethyl-1H-pyrazole-4-carboxylic acid 4-aminomethyl-benzylamide]
IC50 (Human KLK1): > 8.66 µM | IC50 (Human plasma kallikrein; [1]): 488 nM

Cc1cc(C(=O)NCc2ccc(CN)cc2)c(C)n1Cc1cccc(-c2ccccc2)n1 [Example 16, 2,5-Dimethyl-1-(6-phenyl-pyridin-2-ylmethyl)-1H-pyrrole-3-carboxylic acid 4-aminomethyl-benzylamide]
IC50 (Human KLK1): > 10 µM | IC50 (Human plasma kallikrein; [1]): 186 nM

COc1ccc(Cn2c(C)cc(C(=O)NCc3ccc(CN)cc3)c2C)cc1 [Example 61, 1-(4-Methoxy-benzyl)-2,5-dimethyl-1H-pyrrole-3-carboxylic acid 4-aminomethyl-benzylamide]
IC50 (Human KLK1): > 10 µM | IC50 (Human plasma kallikrein; [1]): 2990 nM

CCOc1cccc(Cn2c(C)cc(C(=O)NCc3ccc(CN)cc3)c2C)c1 [Example 58, 1-(3-Ethoxy-benzyl)-2,5-dimethyl-1H-pyrrole-3-carboxylic acid 4-aminomethyl-benzylamide]
IC50 (Human KLK1): > 10 µM | IC50 (Human plasma kallikrein; [1]): 4920 nM

Cc1cc(C(=O)NCc2ccc(CN)cc2)c(C)n1Cc1csc(-c2cccs2)n1 [Example 26, 2,5-Dimethyl-1-[2-(2-thienyl)-thiazol-4-ylmethyl]-1H-pyrrole-3-carboxylic acid 4-aminomethyl-benzylamide]
IC50 (Human KLK1): > 10 µM | IC50 (Human plasma kallikrein; [1]): 437 nM

Cc1cnn(Cc2ccc(Cn3cc(C(=O)NCc4c(C)cc(CN)cc4C)c(C)n3)cc2)c1 [Example 114, 3-Methyl-1-[4-(4-methyl-pyrazol-1-ylmethyl)-benzyl]-1H-pyrazole-4-carboxylic acid 4-aminomethyl-2,6-dimethyl-benzylamide]
IC50 (Human KLK1): > 10 µM | IC50 (Human plasma kallikrein; [1]): 0.6 nM

Cc1cc(C(=O)NCc2ccc(CN)cc2)c(C)n1Cc1cccc(CN)c1 [Example 66, 1-(3-Aminomethyl-benzyl)-2,5-dimethyl-1H-pyrrole-3-carboxylic acid 4-aminomethyl-benzylamide]
IC50 (Human KLK1): 4.23 µM | IC50 (Human plasma kallikrein; [1]): 5380 nM

Cc1cc(C(=O)NCc2ccc(CN)cc2)c(C)n1Cc1nc2ccccc2s1 [Example 12, 1-Benzothiazol-2-ylmethyl-2,5-dimethyl-1H-pyrrole-3-carboxylic acid 4-aminomethyl-benzylamide]
IC50 (Human KLK1): > 10 µM | IC50 (Human plasma kallikrein; [1]): 5120 nM

Cc1cnn(Cc2ccc(Cn3c(C)cc(C(=O)NCc4ccc(C5(N)CC5)cc4)c3C)cc2)c1 [Example 98, 2,5-Dimethyl-1-[4-(4-methyl-pyrazol-1-ylmethyl)-benzyl]-1H-pyrrole-3-carboxylic acid 4-(1-amino-cyclopropyl)-benzylamide]
IC50 (Human KLK1): > 10 µM | IC50 (Human plasma kallikrein; [1]): 701 nM

NCc1ccc(CNC(=O)c2cnn(Cc3ccc(C(=O)N4CCCCC4)cc3)c2)cc1 [Example 87, 1-[4-(Piperidine-1-carbonyl)-benzyl]-1H-pyrazole-4-carboxylic acid 4-aminomethyl-benzylamide]
IC50 (Human KLK1): > 10 µM | IC50 (Human plasma kallikrein; [1]): 5480 nM

Cc1cc(C(=O)NCc2ccc(CN)nc2)c(C)n1Cc1csc(-c2cccc(F)c2)n1 [Example 44, 1-[2-(3-Fluoro-phenyl)-thiazol-4-ylmethyl]-2,5-dimethyl-1H-pyrrole-3-carboxylic acid (6-aminomethyl-pyridin-3-ylmethyl)-amide]
IC50 (Human KLK1): > 10 µM | IC50 (Human plasma kallikrein; [1]): 355 nM

Cc1cc(C(=O)NCc2ccc(CN)cc2)c(C)n1Cc1ccc(Cn2ccccc2=O)cc1 [Example 90, 2,5-Dimethyl-1-[4-(2-oxo-2H-pyridin-1-ylmethyl)-benzyl]-1H-pyrrole-3-carboxylic acid 4-aminomethyl-benzylamide]
IC50 (Human KLK1): > 10 µM | IC50 (Human plasma kallikrein): 114 nM

Cc1cc(C(=O)NCc2ccc(CN)cc2)c(C)n1Cc1ccc(-c2ccccc2)cc1 [Example 70, 1-Biphenyl-4-ylmethyl-2,5-dimethyl-1H-pyrrole-3-carboxylic acid 4-aminomethyl-benzylamide]
IC50 (Human KLK1): > 10 µM | IC50 (Human plasma kallikrein; [1]): 4590 nM

Cc1cc(C(=O)NCc2ccc(CN)cc2)c(C)n1Cc1cc(-c2ccccc2)no1 [Example 11, 2,5-Dimethyl-1-(3-phenyl-isoxazol-5-ylmethyl)-1H-pyrrole-3-carboxylic acid 4-aminomethyl-benzylamide]
IC50 (Human KLK1): > 10 µM | IC50 (Human plasma kallikrein; [1]): 2420 nM

Cc1c(C(=O)NCc2ccc(CN)cc2)cnn1Cc1csc(-c2ccccc2)n1 [Example 80, 5-Methyl-1-(2-phenyl-thiazol-4-ylmethyl)-1H-pyrazole-4-carboxylic acid 4-aminomethyl-benzylamide]
IC50 (Human KLK1): > 10 µM | IC50 (Human plasma kallikrein; [1]): 2340 nM

CCn1c(C(=O)NCc2c(C)cc(CN)cc2C)cc(C)c1Cc1ccc(Cn2ccccc2=O)cc1 [Example 95, 1-Ethyl-4-methyl-5-[4-(2-oxo-2H-pyridin-1-ylmethyl)-benzyl]-1H-pyrrole-2-carboxylic acid 4-aminomethyl-2,6-dimethyl-benzylamide]
IC50 (Human KLK1): 3.9 µM | IC50 (Human plasma kallikrein; [1]): 16 nM

Cc1cnn(Cc2ccc(Cn3nc(C)c(C(=O)NCc4c(C)cc(CN)cc4C)c3C)cc2)c1 [Example 116, 3,5-Dimethyl-1-[4-(4-methyl-pyrazol-1-ylmethyl)-benzyl]-1H-pyrazole-4-carboxylic acid 4-aminomethyl-2,6-dimethyl-benzylamide]
IC50 (Human KLK1): > 10 µM | IC50 (Human plasma kallikrein; [1]): 11700 nM

Cc1cc(C(=O)NCc2ccc(CN)cc2)c(-c2ccccc2)n1Cc1csc(-c2ccccc2)n1 [Example 24, 5-Methyl-2-phenyl-1-(2-phenyl-thiazol-4-ylmethyl)-1H-pyrrole-3-carboxylic acid 4-aminomethyl-benzylamide]
IC50 (Human KLK1): > 10 µM | IC50 (Human plasma kallikrein; [1]): 431 nM

Cc1cnn(Cc2ccc(Cn3cc(C(=O)NCc4ccc(CN)cc4C)cn3)cc2)c1 [Example 106, 1-[4-(4-Methyl-pyrazol-1-ylmethyl)-benzyl]-1H-pyrazole-4-carboxylic acid 4-aminomethyl-2-methyl-benzylamide]
IC50 (Human KLK1): > 10 µM | IC50 (Human plasma kallikrein; [1]): 2 nM

CC(=O)NCc1ccc(Cn2c(C)cc(C(=O)NCc3ccc(CN)cc3)c2C)cc1 [Example 68, 1-[4-(Acetylamino-methyl)-benzyl]-2,5-dimethyl-1H-pyrrole-3-carboxylic acid 4-aminomethyl-benzylamide]
IC50 (Human KLK1): > 10 µM | IC50 (Human plasma kallikrein; [1]): 2090 nM

Cc1cnn(Cc2ccc(Cn3ncc(C(=O)NCc4c(C)cc(CN)cc4C)c3C)cc2)c1 [Example 115, 5-Methyl-1-[4-(4-methyl-pyrazol-1-ylmethyl)-benzyl]-1H-pyrazole-4-carboxylic acid 4-aminomethyl-2,6-dimethyl-benzylamide]
IC50 (Human KLK1): > 10 µM | IC50 (Human plasma kallikrein; [1]): 8 nM
